Data taken from patent publication US9533049B2, “Method for preparing nanoparticles based on functional amphiphilic molecules or macromolecules, and the use thereof” (UNIVERSITE VICTOR SEGALEN BOURDEAUX 2, priority 2007, dated 2017).

Columns and labels:
Type in all cases: cell-based
[1] = system: human cancer cell line HCT8 (colorectal adenocarcinoma); assay: Cytotoxicity, crystal violet staining, HCT8 line; conditions: HCT8, short exposure 30 min in physiological serum; preliminary results
Description: The test implemented uses the human cancer cell line HCT8 (colorectal adenocarcinoma), known for its intrinsic resistance to platinum derivatives.
The protocol is as follows: • […], the cells are implanted in 96-well plates at a density of 50,000 cells per well. • On D0, the cells are treated by the formulation test, either for a short exposure period (30 min) in physiological serum, or for a long exposure period (72 h) in culture medium. The range of concentrations produced comprises the points 0-0.4-0.8-1.5-3-6.25-12.5-25-50 and 100 mg/L. Negative controls (untreated cells) and positive controls (cis-platin) were carried out simultaneously. • On D3, the culture medium is changed, and the 72 h treatment stopped. • On D6, the protocol is completed, and the cells remaining at the bottom of the well are stained with crystal violet.
(§1) The survival of the cells was determined, and the overall percentage of death (or cytotoxicity) obtained at the different test formulation concentrations was compared with that obtained with the negative controls (untreated cells). The cytotoxicity results were presented in the form of dose-effect curves characterized by their inhibitory concentration 50 (IC50), i.e. the concentration at which 50% dead cells are observed.

IGROV1 cells [2] = assay: Assay of intracellular cis-platin (ICP optical assay after cell lysis); conditions: 10^6 cells, 100 μM, 2 h
Description: IGROV1 cells (ovarian adenocarcinoma line) at 80% confluence (dish 10 cm in diameter) are treated with 100 μM of free cis-platin or cis-platin encapsulated in the nanoparticles of Example 16 for 2, 4 or 6 h. On completion of this treatment two washings with PBS are carried out. The cells are treated with trypsin and resuspended in PBS. Two washings of the cell suspensions with PBS are carried out (centrifugation 1000 rpm/1 min). The cells are suspended in 1 mL of PBS and counted.
10^6 cells are lysed with 500 μL of the cell lysis solution (lysis buffer from SIGMA). The volume is topped up to 5 mL with milli-Q water with 1% HNO3 acid.

IGROV1 cells [3] = assay: Cytotoxicity, MTS colorimetric assay (Example 21); conditions: IGROV1, incubation time 24 h
Description: 1000 to 5000 IGROV1 cells are incubated in 100 μL of medium with serum per well (96-well plate). After 24 h the medium is removed and the cells are treated for 1 to 3 days with the formulations according to the invention and/or free cis-Pt (at the desired concentrations). The cells are incubated at 37° C. in 200 μL of medium with serum.
as §1, with “different” for “different test formulation”, “concentrations of formulations tested” for “concentrations”

[4] = system: IGROV1 (ovarian adenocarcinoma line, sensitive to cis-platin); assay: Cytotoxicity, MTS assay (Example 22), IGROV1; conditions: IGROV1, treatment 24 hours in medium without serum, MTS 48 hours after washing; read-out: concentration necessary to obtain 50% cell death (IC50)
Description: (§2) 2500 cells (IGROV1, SKOV3, ovarian adenocarcinoma lines) per well are incubated in 100 μL of the medium with serum in a 96-well plate. After 24 hours the medium is aspirated and the cells are treated with free cis-platin or cis-platin encapsulated in the nanoparticles of Example 16 in 100 μL of the medium without serum at different concentrations (500, 100, 10, 1, 0.1, 0.01, 0.001 μM). After treatment for 24 hours, the medium is removed and the cells are washed twice with 100 μL of PBS then incubated with 100 μL of the medium with serum.
(§3) The absorbance at 490 nm is measured after incubation for 2 to 4 hours at 37° C. The absorbance is proportional to the cell viability.

[5] = system: SKOV3 (ovarian adenocarcinoma line, resistant to cis-platin); assay: Cytotoxicity, MTS assay (Example 22), SKOV3; conditions: SKOV3, treatment 24 hours in medium without serum, MTS 48 hours after washing; read-out: concentration necessary to obtain 50% cell death (IC50)
Description: as §2, §3

Which “IC50 (mg/L)” value [1] does the source give for `N.N.[Cl][Pt][Cl]` [cis-platin] here?
The value was “IC50 > at 100 mg/L”.

What about the cis-platin internalized (IGROV1 cells [2]) of the same molecule?
Its cis-platin internalized is 0.5 nmol.

What about the “IC50 Expressed” value (IGROV1 cells [3]; mg/L of cis-platin) of the same molecule?
Its value is 9.48 µg/mL.

And the IC50 (IGROV1 cells [3]; read-out: IC50 Expressed)?
Its IC50 is 31.6 µM.

And the IC50 [4]?
Its IC50 is 2.41 µM.

What about the IC50 [5] of the same molecule?
The IC50 was 4.3 µM.
